Results reported in patent US20240294541A1, “COMPOUNDS CONSTITUTING C20-MODIFIED SALINOMYCIN DERIVATIVES, A METHOD FOR OBTAINING THE SAME, A COMPOSITION CONTAINING THE SAME AND A USE OF SAID COMPOUNDS” (FILECLO SPOLKA Z OGRANICZONA ODPOWIEDZIALNOSCIA, priority 2021, published 2024).
Counter-ions that a name gives are not always drawn. Like-named read-outs stand apart in the source and are kept apart here.

How the values were obtained:
Type in all cases: cell-based
[1] = test system: NCI-H23 (human lung cancer); test: In vitro cytotoxicity, SRB assay, NCI-H23; conditions: for IC50: Homo sapiens, NCI-H23, 72 h with compound, SRB, n/a = non-active compound, read-out: NCI-H23 IC50; for NCI-H23 SI: selectivity coefficient vs normal BALB/3T3 cells
[2] = test system: PFSK-1 (malignant primitive neuroectodermal tumour); test: In vitro cytotoxicity, SRB assay, PFSK-1; conditions: for IC50: Homo sapiens, PFSK-1, 72 h with compound, SRB, n/a = non-active compound, read-out: PFSK-1 IC50; for PFSK-1 SI: selectivity coefficient vs normal BALB/3T3 cells
[3] = test system: A2780 (human ovarian cancer); test: In vitro cytotoxicity, SRB assay, A2780; conditions: for IC50: Homo sapiens, A2780, 72 h with compound, SRB, n/a = non-active compound, read-out: A2780 IC50; for A2780 SI: selectivity coefficient vs normal BALB/3T3 cells
[4] = test system: A2780Cis (cisplatin-resistant human ovarian cancer); test: In vitro cytotoxicity, SRB assay, A2780Cis; conditions: for IC50: Homo sapiens, A2780cis
[5] = test system: PLC/PRF/5 (human liver cancer); test: cells; conditions: for IC50: Homo sapiens, PLC-PRF-5, 72 h with compound, SRB, n/a = non-active compound, read-out: PLC/PRF/5 IC50; for PLC/PRF/5 SI: selectivity coefficient vs normal BALB/3T3 cells
[6] = test system: SNU-16 (human gastric cancer); test: cells; conditions: for IC50: Homo sapiens, SNU-16, 72 h with compound, MTT, n/a = non-active compound, read-out: SNU-16 IC50; for SNU-16 SI: selectivity coefficient vs normal BALB/3T3 cells
[7] = test system: KG-1 (human acute myeloid leukaemia); test: In vitro cytotoxicity, MTT assay, KG-1; conditions: for IC50: Homo sapiens, 72 h with compound, MTT, n/a = non-active compound; for KG-1 SI: selectivity coefficient vs normal BALB/3T3 cells
A375 (human melanoma) = test: In vitro cytotoxicity, SRB assay, A375; conditions: for IC50: Homo sapiens, A-375, 72 h with compound, SRB, n/a = non-active compound, read-out: A375 IC50; for A375 SI: selectivity coefficient vs normal BALB/3T3 cells
[8] = test system: MIA PaCa-2 (human pancreatic cancer); test: cells; conditions: for IC50: Homo sapiens, MIA PaCa-2, 72 h with compound, SRB, n/a = non-active compound, read-out: MIA PaCa-2 IC50; for MIA PaCa-2 SI: selectivity coefficient vs normal BALB/3T3 cells
[9] = test system: BALB/3T3 (normal mouse fibroblasts); test: In vitro cytotoxicity, SRB assay, normal BALB/3T3 fibroblasts
[10] = test system: MV-4-11 (human biphenotypic leukaemia); test: In vitro cytotoxicity, MTT assay, MV-4-11; conditions: for IC50: Homo sapiens, MV4-11, read-out: IC50 (nM) MV4-11
[11] = 72 h, read-out: A2780Cis IC50 (nM)
[12] = Mus musculus, BALB/3T3, normal cells, 72 h with compound, SRB, n/a = non-active compound, read-out: BALB/3T3 IC50
[13] = Table 5, BALB/3T3 normal mouse fibroblasts, read-out: IC50 (nM) BALB3T3 normal cells

SMILES | IC50 [2] [nM] | IC50 [3] [nM] | A2780Cis RI [4] | IC50 [4, 11] [nM] | IC50 [6] [nM] | IC50 [7] [nM] | SI A2780Cis [4] | IC50 ([4]; read-out: IC50 (nM) A2780Cis) [nM] | IC50 [9, 13] [nM] | SI MV4-11 [10] | IC50 [10] [nM] | also measured
CC[C@@H](C(=O)[C@@H](C)[C@@H](O)[C@H](C)[C@@H]1O[C@@H]([C@@H](CC)C(=O)O)CC[C@@H]1C)[C@H]1O[C@]2(C=C[C@@H](NC(=O)NS(=O)(=O)c3ccc(C)cc3)[C@]3(CC[C@@](C)([C@H]4CC[C@](O)(CC)[C@H](C)O4)O3)O2)[C@H](C)C[C@@H]1C [FLC-00364-1] | 5600 | 2600 | 0.4 | 1130 | 5380 | 3700 | – | – | – | – | – | IC50 [1]: 4790 nM; IC50 [5]: 4480 nM
CCNC(=S)N[C@@H]1C=C[C@]2(O[C@H]([C@@H](CC)C(=O)[C@@H](C)[C@@H](O)[C@H](C)[C@@H]3O[C@@H]([C@@H](CC)C(=O)O)CC[C@@H]3C)[C@@H](C)C[C@H]2C)O[C@@]12CC[C@@](C)([C@H]1CC[C@](O)(CC)[C@H](C)O1)O2 [FLC-00339-1 Na] | 16.1 | 2.27 | 0.9 | 2.04 | 17.5 | 11.1 | – | – | – | – | – | IC50 [1]: 4.38 nM; NCI-H23 SI [1]: 12.4; PFSK-1 SI [2]: 3.4; A2780 SI [3]: 24.0; A2780Cis SI [4]: 26.7; IC50 (A375 (human melanoma)): 26.9 nM; A375 SI (A375 (human melanoma)): 2.0; IC50 [5]: 10.8 nM; PLC/PRF/5 SI [5]: 5.0; SNU-16 SI [6]: 3.1; KG-1 SI [7]: 4.9; IC50 [8]: 17.1 nM; MIA PaCa-2 SI [8]: 3.2; IC50 [9, 12]: 54.5 nM
CC[C@@H](C(=O)[C@@H](C)[C@@H](O)[C@H](C)[C@@H]1O[C@@H]([C@@H](CC)C(=O)O)CC[C@@H]1C)[C@H]1O[C@]2(C=C[C@@H](NC(=O)NC(=O)C(Cl)(Cl)Cl)[C@]3(CC[C@@](C)([C@H]4CC[C@](O)(CC)[C@H](C)O4)O3)O2)[C@H](C)C[C@@H]1C [FLC-00367-1] | 689 | 322 | 0.8 | 266 | 368 | 666 | – | – | – | – | – | IC50 [1]: 682 nM; NCI-H23 SI [1]: 7.4; PFSK-1 SI [2]: 7.4; A2780 SI [3]: 15.7; A2780Cis SI [4]: 19.1; IC50 (A375 (human melanoma)): 5920 nM; A375 SI (A375 (human melanoma)): 0.9; IC50 [5]: 940 nM; PLC/PRF/5 SI [5]: 5.4; SNU-16 SI [6]: 13.8; KG-1 SI [7]: 7.6; IC50 [8]: 3220 nM; MIA PaCa-2 SI [8]: 1.6; IC50 [9, 12]: 5080 nM
CC[C@@H](C(=O)[C@@H](C)[C@@H](O)[C@H](C)[C@@H]1O[C@@H]([C@@H](CC)C(=O)O)CC[C@@H]1C)[C@H]1O[C@]2(C=C[C@@H](NC(=O)NS(=O)(=O)c3ccccc3)[C@]3(CC[C@@](C)([C@H]4CC[C@](O)(CC)[C@H](C)O4)O3)O2)[C@H](C)C[C@@H]1C [FLC-00365-1] | 6200 | 3480 | 0.9 | 3020 | 5830 | 8000 | – | – | – | – | – | –
CCOC(=O)C(=O)N[C@@H]1C=C[C@]2(O[C@H]([C@@H](CC)C(=O)[C@@H](C)[C@@H](O)[C@H](C)[C@@H]3O[C@@H]([C@@H](CC)C(=O)O)CC[C@@H]3C)[C@@H](C)C[C@H]2C)O[C@@]12CC[C@@](C)([C@H]1CC[C@](O)(CC)[C@H](C)O1)O2 [FLC-00373-1, C20-aminosalinomycin oxalate derivative] | – | 6690 | – | – | – | 9060 | – | – | – | – | – | –
CC[C@@H](C(=O)[C@@H](C)[C@@H](O)[C@H](C)[C@@H]1O[C@@H]([C@@H](CC)C(=O)O)CC[C@@H]1C)[C@H]1O[C@]2(C=C[C@@H](NC(=O)OCc3ccccc3Cl)[C@]3(CC[C@@](C)([C@H]4CC[C@](O)(CC)[C@H](C)O4)O3)O2)[C@H](C)C[C@@H]1C [FLC-00484-1•Na] | – | – | – | – | – | – | 95.4 | 0.25 | 23.9 | 40.7 | 0.59 | –
CC[C@@H](C(=O)[C@@H](C)[C@@H](O)[C@H](C)[C@@H]1O[C@@H]([C@@H](CC)C(=O)O)CC[C@@H]1C)[C@H]1O[C@]2(C=C[C@@H](NC(=O)NCC3CCC(F)(F)CC3)[C@]3(CC[C@@](C)([C@H]4CC[C@](O)(CC)[C@H](C)O4)O3)O2)[C@H](C)C[C@@H]1C [FLC-00545-1•Na] | – | – | – | – | – | – | 186.6 | 0.57 | 106 | 62.8 | 1.68 | –
CC[C@@H](C(=O)[C@@H](C)[C@@H](O)[C@H](C)[C@@H]1O[C@@H]([C@@H](CC)C(=O)O)CC[C@@H]1C)[C@H]1O[C@]2(C=C[C@@H](NC(=O)NCc3cccnc3)[C@]3(CC[C@@](C)([C@H]4CC[C@](O)(CC)[C@H](C)O4)O3)O2)[C@H](C)C[C@@H]1C [FLC-00566-1•Na] | – | – | – | – | – | – | 47.6 | 122 | 5820 | 22.8 | 255 | –
CC[C@@H](C(=O)[C@@H](C)[C@@H](O)[C@H](C)[C@@H]1O[C@@H]([C@@H](CC)C(=O)O)CC[C@@H]1C)[C@H]1O[C@]2(C=C[C@@H](NC(=O)C(=O)NCc3ccncc3)[C@]3(CC[C@@](C)([C@H]4CC[C@](O)(CC)[C@H](C)O4)O3)O2)[C@H](C)C[C@@H]1C [FLC-00489-1•Na] | – | – | – | – | – | – | 28.0 | 175 | 4920 | 14.6 | 338 | –
CC[C@@H](C(=O)[C@@H](C)[C@@H](O)[C@H](C)[C@@H]1O[C@@H]([C@@H](CC)C(=O)O)CC[C@@H]1C)[C@H]1O[C@]2(C=C[C@@H](NC(=O)OC(C(F)(F)F)C(F)(F)F)[C@]3(CC[C@@](C)([C@H]4CC[C@](O)(CC)[C@H](C)O4)O3)O2)[C@H](C)C[C@@H]1C [FLC-00531-1•Na] | – | – | – | – | – | – | 13.2 | 11 | – | 6.2 | 23.3 | IC50 ([9]; Mus musculus, BALB/3T3, read-out: IC50 (nM) BALB3T3 normal cells): 145 nM
CC[C@@H](C(=O)[C@@H](C)[C@@H](O)[C@H](C)[C@@H]1O[C@@H]([C@@H](CC)C(=O)O)CC[C@@H]1C)[C@H]1O[C@]2(C=C[C@@H](NC(=O)C(C)(C)C)[C@]3(CC[C@@](C)([C@H]4CC[C@](O)(CC)[C@H](C)O4)O3)O2)[C@H](C)C[C@@H]1C [FLC-00550-1•Na] | – | – | – | – | – | – | 42.1 | 10.6 | 448 | 26.6 | 16.9 | –
CC[C@@H](C(=O)[C@@H](C)[C@@H](O)[C@H](C)[C@@H]1O[C@@H]([C@@H](CC)C(=O)O)CC[C@@H]1C)[C@H]1O[C@]2(C=C[C@@H](NC(=O)NCCCOC)[C@]3(CC[C@@](C)([C@H]4CC[C@](O)(CC)[C@H](C)O4)O3)O2)[C@H](C)C[C@@H]1C [FLC-00539-1•Na] | – | – | – | – | – | – | 46.1 | 7.06 | 326 | 11.9 | 27.3 | –
CC[C@@H](C(=O)[C@@H](C)[C@@H](O)[C@H](C)[C@@H]1O[C@@H]([C@@H](CC)C(=O)O)CC[C@@H]1C)[C@H]1O[C@]2(C=C[C@@H](NC(=O)N(C)C)[C@]3(CC[C@@](C)([C@H]4CC[C@](O)(CC)[C@H](C)O4)O3)O2)[C@H](C)C[C@@H]1C [FLC-00538-1•Na] | – | – | – | – | – | – | 22.4 | 42.2 | 943 | 9.2 | 103 | –
CC[C@@H](C(=O)[C@@H](C)[C@@H](O)[C@H](C)[C@@H]1O[C@@H]([C@@H](CC)C(=O)O)CC[C@@H]1C)[C@H]1O[C@]2(C=C[C@@H](NC(=O)OCCC#N)[C@]3(CC[C@@](C)([C@H]4CC[C@](O)(CC)[C@H](C)O4)O3)O2)[C@H](C)C[C@@H]1C [FLC-00509-1•Na] | – | – | – | – | – | – | 14.7 | 16.7 | 246 | 10.9 | 22.6 | –
CC[C@@H](C(=O)[C@@H](C)[C@@H](O)[C@H](C)[C@@H]1O[C@@H]([C@@H](CC)C(=O)O)CC[C@@H]1C)[C@H]1O[C@]2(C=C[C@@H](NC(=S)Nc3ccc(F)cc3)[C@]3(CC[C@@](C)([C@H]4CC[C@](O)(CC)[C@H](C)O4)O3)O2)[C@H](C)C[C@@H]1C [FLC-00340-1 Na] | 9.37 | 2.41 | 0.8 | 1.84 | 16.7 | 24.4 | – | – | – | – | – | IC50 [1]: 8.64 nM; NCI-H23 SI [1]: 6.7; PFSK-1 SI [2]: 6.2; A2780 SI [3]: 24.0; A2780Cis SI [4]: 31.4; IC50 (A375 (human melanoma)): 31.2 nM; A375 SI (A375 (human melanoma)): 1.8; IC50 [5]: 19.1 nM; PLC/PRF/5 SI [5]: 3.0; SNU-16 SI [6]: 3.5; KG-1 SI [7]: 2.4; IC50 [8]: 33.9 nM; MIA PaCa-2 SI [8]: 1.7; IC50 [9, 12]: 57.7 nM
